Test results published in patent US20240293558A1, “KRAS INHIBITOR CONJUGATES” (Erasca, Inc., priority 2021, published 2024).
Like-named read-outs stand apart in the source and are kept apart here.

Legend:
[1] = biological target: T1, KRAS (WT) (Homo sapiens, UniProt P01116); experiment: In-vitro RAS-RAF binding assay (RRB), HTRF/FRET; format: biochemical; details: read-out: Inhibition of RAS-RAF Binding (in-vitro) KRAS (WT) IC50
T1 construct: Biotinylated KRAS protein amino acids 1-169 (produced at Erasca); made in house
Procedure, shortened: (§1)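 Biotinylated KRAS 1-169 (streptavidin-terbium donor, 30 nM) and GST-cRAF RBD (anti-GST d2 acceptor, 30 nM) in HEPES pH 7.5, NaCl, MgCl2, DTT buffer. After compound incubation, SOS1 catalytic domain plus GTPgS drive 60 min nucleotide exchange. HTRF FRET read at equilibrium, in duplicate.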

[2] = biological target: T2, KRAS G12D (Homo sapiens, UniProt P01116, G12D); experiment: Degradation of KRas G12D in AsPC-1 cells, Western blot; format: cell-based; design: endogenous in cells; host or cells: AsPC-1 (ATCC CRL-1682); details: for Dmax: ASPC1; for Dmax / DC50: AsPc-1 cell line after 24 h treatment; for KRAS G12D degradation (Western blot), result in words: AsPC-1 cells, FIGS. 1-5
Method: This Example illustrates that the compounds presented herein degrade KRAS G12D.
AsPC-1 cells (ATCC CRL-1682) expressing G12D were grown in RPMI-1640 medium supplemented with 10% fetal bovine serum, and Penicillin/Streptomycin. Cell were plated in 6-well tissue culture plates at a density of 1 million cells/well and allowed to attach for overnight. Diluted compounds were then added in a final concentration of 0.2% DMSO. After 24 hour treatment, the medium was removed, and the plate was washed three times with ice-cold PBS. 50ul of the RIPA cell lysis buffer (ThermoFisher 89901) supplemented with protease inhibitor (Roche 4693116001) and Phosphatase Cocktail A and B inhibitor (Bimake B15002; Bimake Houston TX) was added to each well, the adherent cells were scratched off, and transferred into pre-cold centrifuge tubes. After vigorous vortex, the tubes were incubated on ice for 30 minutes, centrifuged 14,000 rpm for 10 min at 4° C., and the supernatant were transferred into fresh tubes kept on ice. The protein concentration of the supernatant was determined with bicinchoninic acid method (BCA) (ThermoFisher 23227). Samples were prepared to the final concentration of 30ug in 20ul using NuPAGE LDS Sample Buffer (Invitrogen NP0007), NuPAGE Sample Reducing Agent (Invitrogen NP0009), and RIPA cell lysis buffer, and boiled at 95° C. for 15 minutes in water bath.
The levels of KRAS protein and phosphorylated ERK1/2 were determined by Western blotting. 20 μL of protein sample mixture was loaded into each well of 1.5 mm 4-12% Bis-Tris gel (Invitrogen NP0335), and run at 80V in stacking gel and 120 V in separating gel for about 2 h in MOPS running buffer (Invitrogen NP0001). The gel was transferred to the membrane (20V, 7 min) with Invitrogen iBlot2, and blocked with Li-Cor blocking buffer (LI-COR 927-60001; Li-Cor Biotechnology, Lincoln NE) for at least 1 h at room temperature. Primary antibodies diluted in the blocking buffer were added and incubated at 4° C. overnight. As the primary antibodies, KRAS (Proteintech 12063-1-AP), G12D Mutant Specific KRAS (Cell Signaling Technology 14429S), ERKI1/2 (Cell Signaling Technology 4695S), Phospho-ERKI1/2 (Cell Signaling Technology 4370S), and GAPDH (Millipore MAB374) were used. The membrane was washed 4 times with TBST (0.10% Tween20®; ThermoFisher 28360) for 5 minutes at room temperature, then incubated with Li-Cor anti-rabbit-800 (LI-COR 926-68070) and anti-mouse-680 (LI-COR-926-32211) diluted in Li-Cor blocking buffer with the ratio of 1:15,000 to visualize the primary antibodies for 1 hour at room temperature. Then membrane was washed 4 times with TBST (0.1% Tween20) 5 minutes. The signal intensities of bands were quantified by Li-Cor Odyssey CLX.
The KRas and phosphor-ERK1/2 signals were normalized to the GAPDH signal for each lane and percent of DMSO values were calculated to determine the degradation of KRas and the inhibition of ERK1/2 phosphorylation upon the compound treatment.
Target sequence in this assay (P01116 1-188 isoform P01116-2 G12D): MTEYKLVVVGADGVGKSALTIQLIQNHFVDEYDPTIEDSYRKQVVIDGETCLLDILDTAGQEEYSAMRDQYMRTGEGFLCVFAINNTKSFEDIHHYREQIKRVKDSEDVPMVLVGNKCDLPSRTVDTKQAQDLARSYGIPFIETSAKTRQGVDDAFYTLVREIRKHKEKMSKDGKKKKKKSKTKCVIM

[3] = biological target: T2, KRAS G12D; experiment: In-vitro RAS-RAF binding assay (RRB), HTRF/FRET; format: biochemical; design: Biotinylated KRAS protein amino acids 1-169 (produced at Erasca); made in house; details: read-out: Inhibition of RAS-RAF Binding (in-vitro) KRAS (G12D) IC50
Procedure, shortened: as §1
Target sequence in this assay (P01116 1-169 isoform P01116-2 G12D): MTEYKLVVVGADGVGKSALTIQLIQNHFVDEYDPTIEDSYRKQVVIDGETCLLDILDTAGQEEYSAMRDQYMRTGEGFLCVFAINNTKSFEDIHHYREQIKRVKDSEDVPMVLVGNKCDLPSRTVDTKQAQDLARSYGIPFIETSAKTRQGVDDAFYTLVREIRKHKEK

[4] = biological target: T3, KRas G12D fused to HiBiT peptide (Homo sapiens, UniProt P01116, G12D); experiment: ASPC-1 HiBit assay to determine G12D degradation; format: cell-based; details: AsPC-1 HiBiT cells, 24-hour incubation; read-out: ASPC-1 HiBit DC50 (C)
T3 construct: endogenous in cells; host or cells: AsPC-1 HiBiT knock-in single clone (Cas9 RNP + ssODN)
Procedure, shortened: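 Homozygous AsPC-1 clone with N-terminal HiBiT knock-in on endogenous KRas G12D, 24 h compound exposure, top dose 10 μM, 3-fold, 10 points, 1% DMSO. Lytic HiBiT luminescence normalised to DMSO and inhibitor controls gives % degradation; DC50 from 4-parameter fit after hook-effect points removed.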

[5] = Table 2, average of multiple runs of each compound

T3 sequence (P01116 1-188 isoform P01116-2 G12D): as the sequence (P01116 1-188 isoform P01116-2 G12D) above
T1 sequence (P01116 1-169 isoform P01116-2): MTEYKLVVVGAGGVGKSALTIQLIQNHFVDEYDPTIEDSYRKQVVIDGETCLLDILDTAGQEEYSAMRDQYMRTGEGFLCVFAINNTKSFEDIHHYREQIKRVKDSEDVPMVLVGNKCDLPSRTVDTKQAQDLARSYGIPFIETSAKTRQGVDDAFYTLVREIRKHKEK

Structure (SMILES)	IC50 [1, 5]	IC50 [3, 5]	DC50 [4]	IC50 ([1]; Table 1)	Dmax [2]	KRAS G12D degradation (Western blot), result in words [2]	DC50 [2]	IC50 ([3]; Table 1)
Cc1ncsc1-c1ccc([C@H](CO)NC(=O)[C@@H]2C[C@@H](O)CN2C(=O)[C@@H](NC(=O)CCOCCCN2CCC[C@H]2COc2nc(N3CC4CCC(C3)N4)c3cc(Cl)c(-c4ccc(F)c5sc(N)c(C#N)c45)c(F)c3n2)C(C)(C)C)cc1 [Example 9, (2S,4R)-1-[(2S)-2-[3-[3-[(2S)-2-[[7-(2-amino-3-cyano-7-fluoro-benzothiophen-4-yl)-6-chloro-4-(3,8-diazabicyclo[3.2.1]octan-3-yl)-8-fluoro-quinazolin-2-yl]oxymethyl]pyrrolidin-1-yl]propoxy]propanoylamino]-3,3-dimethyl-butanoyl]-4-hydroxy-N-[(1R)-2-hydroxy-1-[4-(4-methylthiazol-5-yl)phenyl]ethyl]pyrrolidine-2-carboxamide]	49.5 nM	13.8 nM		49.5 nM	95%	Favorable results	183 nM	13.8 nM
Cc1ncsc1-c1ccc([C@H](C)NC(=O)[C@@H]2C[C@@H](O)CN2C(=O)[C@@H](NC(=O)CCOCCCN2CCC[C@H]2COc2nc(N3CC4CCC(C3)N4)c3cnc(-c4cc(O)cc5cccc(F)c45)c(F)c3n2)C(C)(C)C)cc1 [Example 6, (2S,4R)-1-[(2S)-2-[3-[3-[(2S)-2-[[4-(3,8-diazabicyclo[3.2.1]octan-3-yl)-8-fluoro-7-(8-fluoro-3-hydroxy-1-naphthyl)pyrido[4,3-d]pyrimidin-2-yl]oxymethyl]pyrrolidin-1-yl]propoxy]propanoylamino]-3,3-dimethyl-butanoyl]-4-hydroxy-N-[(1S)-1-[4-(4-methylthiazol-5-yl)phenyl]ethyl]pyrrolidine-2-carboxamide]	158 nM	8.21 nM		126 nM	95%	Favorable results	255 nM	9.5 nM
Cc1ncsc1-c1ccc([C@H](C)NC(=O)[C@@H]2C[C@@H](O)CN2C(=O)[C@@H](NC(=O)CCOCCCN2CCC[C@H]2COc2nc(N3CC4CCC(C3)N4)c3cc(Cl)c(-c4ccc(F)c5sc(N)nc45)c(F)c3n2)C(C)(C)C)cc1 [Example 4, (2S,4R)-1-[(2S)-2-[3-[3-[(2S)-2-[[7-(2-amino-7-fluoro-1,3-benzothiazol-4-yl)-6-chloro-4-(3,8-diazabicyclo[3.2.1]octan-3-yl)-8-fluoro-quinazolin-2-yl]oxymethyl]pyrrolidin-1-yl]propoxy]propanoylamino]-3,3-dimethylbutanoyl]-4-hydroxy-N-[(1S)-1-[4-(4-methylthiazol-5-yl)phenyl]ethyl]pyrrolidine-2-carboxamide]	216 nM	15.1 nM		134 nM		successful degradation		13 nM

Further lines, with some results ahead:

IC50 [1, 5]	IC50 [3, 5]	DC50 [4]	Structure (SMILES)	IC50 ([1]; Table 1)	Dmax [2]	KRAS G12D degradation (Western blot), result in words [2]	DC50 [2]	IC50 ([3]; Table 1)
> 10000 nM	28 nM	582 nM	CC(C)[C@@H](C(=O)N1C[C@H](O)C[C@H]1C(=O)N[C@@H](C)c1ccc(-c2c(F)cc(F)cc2F)cc1)c1cc(OCC2CCN(CCOc3nc(N4CC5CCC(C4)N5)c4cc(Cl)c(-c5ccc(F)c6sc(N)c(C#N)c56)c(F)c4n3)CC2)no1 [Example 71, (2S,4R)-1-((2R)-2-(3-((1-(2-((7-(2-amino-3-cyano-7-fluorobenzo[b]thiophen-4-yl)-4-(3,8-diazabicyclo[3.2.1]octan-3-yl)-6-chloro-8-fluoroquinazolin-2-yl)oxy)ethyl)piperidin-4-yl)methoxy)isoxazol-5-yl)-3-methylbutanoyl)-4-hydroxy-N-((S)-1-(2′,4′,6′-trifluoro-[1,1′-biphenyl]-4-yl)ethyl)pyrrolidine-2-carboxamide]					
1610 nM	16 nM	264 nM	C#Cc1c(F)ccc2cc(O)cc(-c3ncc4c(N5CC6CCC(C5)N6)nc(OCCN5CCC6(CC5)CN(c5cc([C@H](C(=O)N7C[C@H](O)C[C@H]7C(=O)N[C@@H](C)c7ccc(-c8ccccc8Cl)cc7)C(C)C)on5)C6)nc4c3F)c12 [Example 99, (2S,4R)-1-((2R)-2-(3-(7-(2-((4-(3,8-diazabicyclo[3.2.1]octan-3-yl)-7-(8-ethynyl-7-fluoro-3-hydroxynaphthalen-1-yl)-8-fluoropyrido[4,3-d]pyrimidin-2-yl)oxy)ethyl)-2,7-diazaspiro[3.5]nonan-2-yl)isoxazol-5-yl)-3-methylbutanoyl)-N—((S)-1-(2′-chloro-[1,1′-biphenyl]-4-yl)ethyl)-4-hydroxypyrrolidine-2-carboxamide]					
940 nM	9.79 nM	69.7 nM	C#Cc1c(F)ccc2cc(O)cc(-c3ncc4c(N5CC6CCC(C5)N6)nc(OCCN5CCC6(CC5)CN(c5cc([C@H](C(=O)N7C[C@H](O)C[C@H]7C(=O)N[C@@H](C)c7ccc(-c8c(F)cccc8F)cc7)C(C)C)on5)C6)nc4c3F)c12 [Example 16, (2S,4R)-1-[(2R)-2-[3-[7-[2-[4-(3,8-diazabicyclo[3.2.1]octan-3-yl)-7-(8-ethynyl-7-fluoro-3-hydroxy-1-naphthyl)-8-fluoro-pyrido[4,3-d]pyrimidin-2-yl]oxyethyl]-2,7-diazaspiro[3.5]nonan-2-yl]isoxazol-5-yl]-3-methyl-butanoyl]-N-[(1S)-1-[4-(2,6-difluorophenyl)phenyl]ethyl]-4-hydroxy-pyrrolidine-2-carboxamide]					
1320 nM	12.7 nM	112 nM	C#Cc1c(F)ccc2cc(O)cc(-c3ncc4c(N5CC6CCC(C5)N6)nc(OCCN5CCC(COc6cc([C@H](C(=O)N7C[C@H](O)C[C@H]7C(=O)N[C@@H](C)c7ccc(-c8c(F)cccc8F)cc7)C(C)C)on6)CC5)nc4c3F)c12 [Example 15, (2S,4R)-1-((2R)-2-(3-((1-(2-((4-(3,8-diazabicyclo[3.2.1]octan-3-yl)-7-(8-ethynyl-7-fluoro-3-hydroxynaphthalen-1-yl)-8-fluoropyrido[4,3-d]pyrimidin-2-yl)oxy)ethyl)piperidin-4-yl)methoxy)isoxazol-5-yl)-3-methylbutanoyl)-N—((S)-1-(2′,6′-difluoro-[1,1′-biphenyl]-4-yl)ethyl)-4-hydroxypyrrolidine-2-carboxamide]					
